# Patent US10376481B2, “Compounds and methods for inhibiting NHE-mediated antiport in the treatment of disorders associated with fluid retention or salt overload and gastrointestinal tract disorders” (ARDELYX, INC, priority 2012, dated 2019)
# Legend:
# [1] = system: absorption of sodium from the intestinal lumen; experiment: Inhibition of intestinal sodium absorption: rat urinary sodium and fecal form 16 h post-dose; assay type: in vivo, Sprague-Dawley rats; settings: for FFS (fecal form score) / response vs control in vivo at 10 mg/kg: oral gavage 10 mg/kg; for FFS (fecal form score): 16 h post-dose, scale 1-5, group average
# Protocol: Urinary sodium concentration and fecal form were measured to assess the ability of selected example compounds to inhibit the absorption of sodium from the intestinal lumen. Eight-week old Sprague-Dawley rats were purchased from Charles River Laboratories (Hollister, Calif.), were housed 2 per cage, and acclimated for at least 3 days before study initiation. Animals were fed Harlan Teklad Global 2018 rodent chow (Indianapolis, Ind.) and water ad libitum throughout the study and maintained in a standard light/dark cycle of 6 AM to 6 PM. On the day of the study, between 4 PM and 5 PM, a group of rats (n=6) were dosed via oral gavage with test compound or vehicle (water) at a volume of 10 mL/kg. After dose administration animals were placed in individual metabolic cages where they were also fed the same chow in meal form and watered ad libitum. At 16 h post-dose, the urine samples were collected and fecal form was assessed by two independent observations. Fecal forms were scored according to a common scale associated with increasing fecal water to the wettest observation in the cage's collection funnel (1, normal pellet; 2, pellet adhering to sides of collection funnel due to moisture; 3, loss of normal pellet shape; 4, complete loss of shape with a blotting pattern; 5, liquid fecal streams evident). A rat's fecal form score (FFS) was determined by averaging both observational scores for all rats within a group (n=6). The vehicle group average was 1. For urine samples, the volumes were determined gravimetrically and centrifuged at 3,600×g. The supernatants were diluted 100-fold in deionized Milli-Q water then filtered through a 0.2 μm GHP Pall AcroPrep filter plate (Pall Life Sciences, Ann Arbor, Mich.) prior to analysis by ion chromatography. Ten microliters of each filtered extract was injected onto a Dionex ICS-3000 ion chromatograph system (Dionex, Sunnyvale, Calif.). Cations were separated by an isocratic method using 25 mM methanesulfonic acid as the eluent on an IonPac CS12A 2 mm i.d.×250 mm, 8 μm particle size cation exchange column (Dionex). Sodium was quantified using standards prepared from a cation standard mix containing Li^+, Na^+, NH4^+, K^+, Mg^2+, and Ca^2+ (Dionex). The mean mass of sodium urinated for every group in the 16 h period was determined with the vehicle group usually urinating approximately 21 mg sodium. The urine Na (uNa) for rats in the test groups were expressed as a percentage of the vehicle mean and the means were compared to that of the vehicle group by utilizing a one-way analysis of variance coupled with a Dunnett's post hoc test.
# human NHE3 [2] = target: T1, human NHE3 (Homo sapiens, UniProt P48764); experiment: Cell-based assay of NHE-3 activity (human NHE3 inhibition assay); set-up: expressed in transfected cells; host or cells: Opossum kidney (OK) cells (ATCC), electroporated; settings: OK cells with human NHE-3 gene, BCECF pH recovery, 0-30 μM test compound; read-out: Human NHE3 pIC50 (converted)
# T1 sequence (P48764 26-834): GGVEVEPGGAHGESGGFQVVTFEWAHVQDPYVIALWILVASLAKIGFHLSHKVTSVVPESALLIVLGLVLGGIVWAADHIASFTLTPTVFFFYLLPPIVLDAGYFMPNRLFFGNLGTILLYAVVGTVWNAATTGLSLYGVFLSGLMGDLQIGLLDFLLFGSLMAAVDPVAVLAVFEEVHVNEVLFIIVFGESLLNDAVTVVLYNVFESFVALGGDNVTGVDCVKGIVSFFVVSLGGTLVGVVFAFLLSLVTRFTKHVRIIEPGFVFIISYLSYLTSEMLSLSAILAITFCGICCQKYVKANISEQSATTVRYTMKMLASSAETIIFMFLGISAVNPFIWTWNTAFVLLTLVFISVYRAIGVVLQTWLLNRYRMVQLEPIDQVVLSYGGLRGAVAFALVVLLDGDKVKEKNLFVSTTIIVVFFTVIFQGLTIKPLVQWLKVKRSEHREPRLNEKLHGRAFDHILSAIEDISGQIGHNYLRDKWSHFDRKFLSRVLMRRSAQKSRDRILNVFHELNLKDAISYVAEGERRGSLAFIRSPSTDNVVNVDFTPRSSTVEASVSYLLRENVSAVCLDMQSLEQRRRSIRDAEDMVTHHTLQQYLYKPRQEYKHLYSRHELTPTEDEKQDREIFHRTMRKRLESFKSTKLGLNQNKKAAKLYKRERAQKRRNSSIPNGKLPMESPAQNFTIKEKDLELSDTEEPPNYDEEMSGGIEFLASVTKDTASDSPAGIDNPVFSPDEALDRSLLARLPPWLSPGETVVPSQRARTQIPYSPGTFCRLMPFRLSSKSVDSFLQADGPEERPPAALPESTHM
# Protocol: Rat or human NHE-3-mediated Na^+-dependent H^+ antiport was measured using a modification of the pH sensitive dye method originally reported by Paradiso (Proc. Natl. Acad. Sci. USA. (1984) 81(23): 7436-7440). Opossum kidney (OK) cells were obtained from the ATCC and propagated per their instructions. The rat NHE-3 gene (GenBank M85300) or the human NHE-3 gene (GenBank NM_004174.1) was introduced into OK cells via electroporation, and cells were seeded into 96 well plates and grown overnight. Medium was aspirated from the wells, cells were washed twice with NaCl-HEPES buffer (100 mM NaCl, 50 mM HEPES, 10 mM glucose, 5 mM KCl, 2 mM CaCl2, 1 mM MgCl2, pH 7.4), then incubated for 30 min at room temperature with NH4Cl-HEPES buffer (20 mM NH4Cl, 80 mM NaCl, 50 mM HEPES, 5 mM KCl, 2 mM CaCl2, 1 mM MgCl2, pH 7.4) containing 5 μM bis(acetoxymethyl) 3,3′-(3′,6′-bis(acetoxymethoxy)-5-((acetoxymethoxy)carbonyl)-3-oxo-3H-spiro[isobenzofuran-1,9′-xanthene]-2′,7′-diyl)dipropanoate (BCECF-AM). Cells were washed twice with Ammonium free, Na^+-free HEPES (100 mM choline, 50 mM HEPES, 10 mM glucose, 5 mM KCl, 2 mM CaCl2, 1 mM MgCl2, pH 7.4) and incubated in the same buffer for 10 minutes at room temperature to lower intracellular pH. […] Initial rates were plotted as the average 2 or more replicates, and pIC50 values were estimated using GraphPad Prism.
# human NHE3 [3] = target: T1, human NHE3; experiment: Cell-based assay of NHE-3 activity (pre-incubation inhibition), human; settings: for IC50: PS120 fibroblasts stably expressing human NHE3, 10 min pre-incubation with 0-30 μM test compound, read-out: pIC50 (human Preincubation assay) (converted); for % inhibition (human Preincubation assay): PS120 fibroblasts stably expressing human NHE3, pre-incubation with test compound
# Protocol: Rat and human NHE-3-mediated Na^+-dependent H^+ antiport was measured using a modification of the pH sensitive dye method originally reported by Paradiso (Proc. Natl. Acad. Sci. USA. (1984) 81(23): 7436-7440, which is hereby incorporated by reference in its entirety). PS120 fibroblasts stably expressing human NHE3 were obtained from Mark Donowitz (Baltimore, Md.). Opossum kidney (OK) cells were obtained from the ATCC and propagated per their instructions. The rat NHE-3 gene (GenBank M85300) was introduced into OK cells via electroporation, and cells were seeded into 96 well plates and grown overnight. Medium was aspirated from the wells then incubated for 30 min at 37° C. with NH4Cl-HEPES buffer (20 mM NH4Cl, 80 mM NaCl, 50 mM HEPES, 5 mM KCl, 2 mM CaCl2, 1 mM MgCl2, pH 7.4) containing 5 μM BCECF-AM. Cells were washed once with Ammonium free, Nat-free HEPES (100 mM choline, 50 mM HEPES, 10 mM glucose, 5 mM KCl, 2 mM CaCl2, 1 mM MgCl2, pH 7.4) and incubated in the same buffer for 10 minutes at room temperature to lower intracellular pH with 0-30 μM test compound. […] Changes in intracellular pH were monitored using a FLIPR Tetra® (Molecular Devices, Sunnyvale, Calif.) by excitation at λex 439 to 505 nm, and measuring BCECF fluorescence at λem 538 nm. The initial rate of the fluorescence ratio change was used as a measure of NHE-mediated Na^+/H^+ activity, and reported as the change in fluorescence ratio per minute. Initial rates were plotted as the average 2 or more replicates, and pIC50 values were estimated using GraphPad Prism.
# human NHE3 [4] = target: T1, human NHE3; experiment: Cell-based assay of NHE-3 activity (persistent inhibition), human; settings: PS120 fibroblasts stably expressing human NHE3, 60 min incubation then washout; for IC50: read-out: pIC50 (human Persistence assay) (converted)
# Protocol: The ability of compounds to inhibit human and rat NHE-3-mediated Na^+-dependent H^+ antiport after application and washout was measured using a modification of the pH sensitive dye method described above. PS120 fibroblasts stably expressing human NHE3 were obtained from Mark Donowitz (Baltimore, Md.). Opossum kidney (OK) cells were obtained from the ATCC and propagated per their instructions. The rat NHE-3 gene was introduced into OK cells via electroporation, and cells were seeded into 96 well plates and grown overnight. Medium was aspirated from the wells, cells were washed once with NaCl-HEPES buffer (100 mM NaCl, 50 mM HEPES, 10 mM glucose, 5 mM KCl, 2 mM CaCl2, 1 mM MgCl2, pH 7.4), then overlayed with NaCl-HEPES buffer containing 0-30 μM test compound. After a 60 min incubation at room temperature, the test drug containing buffer was aspirated from the cells. Following aspiration, cells were washed once with NaCl-HEPES buffer without drug, then incubated for 30 min at 37° C. with NH4Cl-HEPES buffer (20 mM NH4Cl, 80 mM NaCl, 50 mM HEPES, 5 mM KCl, 2 mM CaCl2, 1 mM MgCl2, pH 7.4) containing 5 μM BCECF-AM. Cells were washed once with Ammonium free, Na^+-free HEPES (100 mM choline, 50 mM HEPES, 10 mM glucose, 5 mM KCl, 2 mM CaCl2, 1 mM MgCl2, pH 7.4) and incubated in the same buffer for 10 minutes at room temperature to lower intracellular pH. NHE-3-mediated recovery of neutral intracellular pH was initiated (10 min after compound washout) by addition of Na-HEPES buffer. […] Changes in intracellular pH were monitored using a FLIPR Tetra® (Molecular Devices, Sunnyvale, Calif.) by excitation at λex 439 to 505 nm, and measuring BCECF fluorescence at λem 538 nm. The initial rate of the fluorescence ratio change was used as a measure of NHE-mediated Na^+/H^+ activity, and reported as the change in fluorescence ratio per minute. Initial rates were plotted as the average 2 or more replicates, and pIC50 values were estimated using GraphPad Prism.
# [5] = urine 16 h post-dose, read-out: uNa Result, uNa (% of vehicle)
IC50 (human NHE3 [2]) [nM],IC50 (human NHE3 [3]) [nM],% inhibition (human Preincubation assay) (human NHE3 [3]),% inhibition (human Persistence assay) (human NHE3 [4]),IC50 (human NHE3 [4]) [nM],Structure (SMILES),"response vs control in vivo at 3 mg/kg ([1]; oral gavage 3 mg/kg, urine 16 h post-dose, read-out: uNa Result, uNa (% of vehicle)) [%]",FFS (fecal form score) [1],"response vs control in vivo at 10 mg/kg [1, 5] [%]"
< 100,–,–,–,–,"CN(C)[C@H]1Cc2c(Cl)cc(Cl)cc2[C@@H]1Oc1ccc(S(=O)(=O)NCCOCCOCCNC(=O)CCC(C)(CCC(=O)NCCOCCOCCNS(=O)(=O)c2ccc(O[C@H]3c4cc(Cl)cc(Cl)c4C[C@@H]3N(C)C)cc2)NC(=O)CCC(=O)O)cc1 [Example 12, 1-(4-((1S,2S)-4,6-dichloro-2-(dimethylamino)-2,3-dihydro-1H-inden-1-yloxy)phenylsulfonamido)-13-(3-(2-(2-(2-(4-((1S,2S)-4,6-dichloro-2-(dimethylamino)-2,3-dihydro-1H-inden-1-yloxy)phenylsulfonamido)ethoxy)ethoxy)ethylamino)-3-oxopropyl)-13-methyl-10,15-dioxo-3,6-dioxa-9,14-diazaoctadecan-18-oic Acid]",35 to 75,–,–
< 100,–,–,–,–,O=C(NCCOCCOCCNS(=O)(=O)c1ccc(O[C@H]2c3ccccc3C[C@@H]2N2CCCCC2)cc1)[C@H](O)[C@@H](O)C(=O)NCCOCCOCCNS(=O)(=O)c1ccc(O[C@H]2c3ccccc3C[C@@H]2N2CCCCC2)cc1 [Example 32],–,–,> 75
< 100,< 100,C (>70%),C (>70%),< 100,O=C(NCCCCNC(=O)NCCOCCOCCNS(=O)(=O)c1ccc(O[C@H]2c3cc(Cl)cc(Cl)c3C[C@@H]2N2CCCC2)cc1)NCCOCCOCCNS(=O)(=O)c1ccc(O[C@H]2c3cc(Cl)cc(Cl)c3C[C@@H]2N2CCCC2)cc1 [Example 17],–,–,–
< 100,< 100,C (>70%),B (40-70%),> 1000,N[C@@H]1CCCN([C@H]2Cc3c(F)cc(Cl)cc3[C@@H]2Oc2ccc(S(=O)(=O)NCCOCCOCCNC(=O)NCCCCNC(=O)NCCOCCOCCNS(=O)(=O)c3ccc(O[C@H]4c5cc(Cl)cc(F)c5C[C@@H]4N4CCC[C@@H](N)C4)cc3)cc2)C1 [Example 29],–,–,–

Structure (SMILES),IC50 (human NHE3 [2]) [nM],IC50 (human NHE3 [3]) [nM],% inhibition (human Preincubation assay) (human NHE3 [3]),% inhibition (human Persistence assay) (human NHE3 [4]),IC50 (human NHE3 [4]) [nM],"response vs control in vivo at 3 mg/kg ([1]; oral gavage 3 mg/kg, urine 16 h post-dose, read-out: uNa Result, uNa (% of vehicle)) [%]",FFS (fecal form score) [1],"response vs control in vivo at 10 mg/kg [1, 5] [%]"
CN(C)[C@H]1Cc2c(Cl)cc(Cl)cc2[C@@H]1Oc1ccc(S(=O)(=O)NCCOCCOCCNC(=O)Nc2ccc(NC(=O)NCCOCCOCCNS(=O)(=O)c3ccc(O[C@H]4c5cc(Cl)cc(Cl)c5C[C@@H]4N(C)C)cc3)cc2)cc1 [Example 27],< 100,–,–,–,–,–,1,< 35
"O=C(NCCOCCOCCNS(=O)(=O)c1ccc(O[C@H]2c3ccccc3C[C@@H]2N2CCCCC2)cc1)c1ccc(C(=O)NCCOCCOCCNS(=O)(=O)c2ccc(O[C@H]3c4ccccc4C[C@@H]3N3CCCCC3)cc2)cc1 [Example 6, N1,N4-bis(2-(2-(2-(4-((1S,2S)-2-(piperidin-1-yl)-2,3-dihydro-1H-inden-1-yloxy)phenylsulfonamido)ethoxy)ethoxy)ethyl)terephthalamide]",< 100,–,–,–,–,–,1,35 to 75
